Measured values taken from patent US20230126447A1, “OCULAR DRUG DEPOT FOR COMPLEMENT-MEDIATED DISORDERS” (priority 2020, published 2023).
Read-outs that look alike come from different tables or passages of the source.

Assay: Ocular tissue distribution and pharmacokinetics, 7.5 and 15 mg/kg oral, pigmented Dutch Belted rabbits (Example 7)
Assay type: in vivo
Settings: for Mean retina concentration / Mean plasma concentration / concentration at 0 h / concentration at 1 h / concentration at 6 h / concentration at 24 h / concentration at 96 h / concentration at 168 h / concentration at 12 h / concentration at 240 h: DB rabbits; for Tmax / concentration at 0 h / concentration at 1 h / concentration at 6 h / concentration at 24 h / concentration at 96 h / concentration at 168 h / concentration at 12 h / concentration at 240 h / MRT last: Dutch Belted, rabbit; for concentration at 0 h / concentration at 1 h / concentration at 6 h / concentration at 24 h / concentration at 96 h / concentration at 168 h / concentration at 12 h / concentration at 240 h: oral
Procedure: For Group 1, two animals/time point were sacrificed via an overdose of sodium pentobarbital at approximately 1, 6, 12, 24, 96, 168, and 240 hours postdose. Blood (approximately 2 mL) was collected from all animals at sacrifice into tubes containing K2EDTA via exsanguination (cardiac puncture).
For Groups 2 through 4, blood (approximately 2 mL) was collected via a jugular vein using a syringe and needle and was transferred into tubes containing K2EDTA at approximately 12 hours after the a.m. dose on Day 15 from the two animals designated for sacrifice at approximately 240 hours after the a.m. dose on Day 15.
For Groups 2 through 4, two animals/group/time point were sacrificed via an overdose of sodium pentobarbital prior to dosing on Day 15 and at approximately 1, 6, 24, 96, 168, and 240 hours after the a.m. dose on Day 15. Blood (approximately 2 mL) was collected from all animals at sacrifice into tubes containing K2EDTA via exsanguination (cardiac puncture).
Blood was maintained on wet ice, in chilled cryoracks, or at approximately 5° C. prior to centrifugation to obtain plasma. Centrifugation began within 1 hour of collection (Deviation). Plasma was placed into 96-well tubes with barcode labels. Plasma was maintained on dry ice prior to storage at approximately −70° C.
At the time of sacrifice, both eyes were enucleated, and the following tissues were collected. Each eye was flash-frozen in liquid nitrogen for 15 to 20 seconds. The enucleated eye was placed on dry ice or stored at approximately −70° C. for at least 2 hours. Within approximately 3 days, the frozen matrices were collected as right and left eyes for each matrix into the specific tube type listed.
At the time of frozen collection, the ocular tissues were rinsed with saline and blotted dry (as appropriate), weighed, and placed on dry ice. All ocular tissues were collected as single samples.

[1] = Choroid-RPE (OU), male DB rabbits, Group 1, Day 1, […] single oral dose
[2] = Choroid-RPE (OU), male DB rabbits, Group 2, Day 15, […] BID oral (15 mg/kg/day)
[3] = Choroid-RPE (OU), male DB rabbits, Group 3, Day 15, 15 mg/kg/dose BID oral (30 mg/kg/day)
[4] = choroid-RPE, 15 mg/kg, Day 15, 15 mg/kg BID, read-out: Mean Choroid-RPE Concentration
[5] = choroid-RPE, […], Day 1, […] single dose, read-out: Mean Choroid-RPE Concentration
[6] = choroid-RPE, […], Day 15, […] BID, read-out: Mean Choroid-RPE Concentration
[7] = iris-ciliary body (ICB), ICB (OU), male DB rabbits, Group 1, Day 1, 7.5 mg/kg single oral dose
[8] = iris-ciliary body, 15 mg/kg, Day 15, 15 mg/kg BID, read-out: Mean Iris-Ciliary Concentration
[9] = iris-ciliary body, […], Day 1, […] single dose, read-out: Mean Iris-Ciliary Concentration
[10] = iris-ciliary body, […], Day 15, […] BID, read-out: Mean Iris-Ciliary Concentration
[11] = plasma, 15 mg/kg, Day 15, 15 mg/kg BID, read-out: Mean Plasma Concentration
[12] = plasma, […], Day 1, […] single dose, read-out: Mean Plasma Concentration
[13] = plasma, […], Day 15, […] BID, read-out: Mean Plasma Concentration
[14] = retina, 15 mg/kg, Day 15, 15 mg/kg BID, read-out: Mean Retina Concentration
[15] = retina, […], Day 15, […] BID, read-out: Mean Retina Concentration

SMILES: CC(=O)c1nn(CC(=O)N2C[C@H](F)C[C@H]2C(=O)Nc2cccc(Br)n2)c2ccc(-c3cnc(C)nc3)cc12 [Compound 1, (2S,4R)-1-(2-(3-Acetyl-5-(2-methylpyrimidin-5-yl)-1H-indazol-1-yl)acetyl)-N-(6-bromopyridin-2-yl)-4-fluoropyrrolidine-2-carboxamide]
- Ocular tissue exposure in melanin-containing tissues (ICB and choroid-RPE), DB compared to NZW rabbits (30 mg/kg/day (15 mg/kg/dose, BID)): greater than 10 fold
- AUC0-12 [1]: 5550 ng·h/g
- AUC0-240 [1]: 14000 ng·h/g
- AUC(0-24) [1]: 7580 ng·h/g
- AUC(0-inf) [1]: 14500 ng·h/g
- AUC(0-t) [1]: 14000 ng·h/g
- Ctrough [1]: 260 ng/g
- DN AUC0-12 [1]: 740 (h*ng/g)/(mg/kg/dose)
- DN AUC0-24 [1]: 1010 (h*ng/g)/(mg/kg/day)
- DN Cmax [1]: 96.8 (ng/g)/(mg/kg/day
- AUC0-12 [2]: 18500 ng·h/g
- AUC0-240 [2]: 89100 ng·h/g
- AUC(0-24) [2]: 30100 ng·h/g
- AUC(0-t) [2]: 89100 ng·h/g
- Ctrough [2]: 1250 ng/g
- DN AUC0-12 [2]: 2470 (h*ng/g)/(mg/kg/dose)
- DN AUC0-24 [2]: 4020 (h*ng/g)/(mg/kg/day)
- DN Cmax [2]: 267 (ng/g)/(mg/kg/day
- AUC0-12 [3]: 28200 ng·h/g
- AUC0-240 [3]: 151000 ng·h/g
- AUC(0-24) [3]: 47500 ng·h/g
- AUC(0-t) [3]: 151000 ng·h/g
- Ctrough [3]: 1740 ng/g
- DN AUC0-12 [3]: 1880 (h*ng/g)/(mg/kg/dose)
- DN AUC0-24 [3]: 3170 (h*ng/g)/(mg/kg/day)
- DN Cmax [3]: 265 (ng/g)/(mg/kg/day
- Mean retina concentration (Day 1, […] single dose, 24 hr): BLQ
- Mean plasma concentration (Day 1, […] single dose, 96 hr): BLQ
- Mean retina concentration (Day 1, […] single dose, 96 hr): BLQ
- Mean plasma concentration (Day 1, […] single dose, 168 hr): BLQ
- Mean retina concentration (Day 1, […] single dose, 168 hr): BLQ
- Mean plasma concentration (Day 1, […] single dose, 240 hr): BLQ
- Mean retina concentration (Day 1, […] single dose, 240 hr): BLQ
- Mean plasma concentration (Day 15, 15 mg/kg BID, 96 hr): BLQ
- Mean plasma concentration (Day 15, 15 mg/kg BID, 168 hr): BLQ
- Mean plasma concentration (Day 15, 15 mg/kg BID, 240 hr): BLQ
- Mean plasma concentration (Day 15, […] BID, 96 hr): BLQ
- Mean plasma concentration (Day 15, […] BID, 168 hr): BLQ
- Mean plasma concentration (Day 15, […] BID, 240 hr): BLQ
- Tmax (choroid-RPE (choroid-retinal pigment epithelium), Choroid-RPE (OU), male DB rabbits, Group 1, Day 1, 7.5 mg/kg single oral dose): 1 h
- concentration at 0 h [4]: 1540 ng/g
- concentration at 1 h [4]: 3970 ng/g
- concentration at 6 h [4]: 1880 ng/g
- concentration at 24 h (choroid-RPE, 15 mg/kg, Day 15, 15 mg/kg BID, 24 hr, read-out: Mean Choroid-RPE Concentration): 1470 ng/g
- concentration at 96 h (choroid-RPE, 15 mg/kg, Day 15, 15 mg/kg BID, 96 hr, read-out: Mean Choroid-RPE Concentration): 441 ng/g
- concentration at 168 h (choroid-RPE, 15 mg/kg, Day 15, 15 mg/kg BID, 168 hr, read-out: Mean Choroid-RPE Concentration): 195 ng/g
- concentration at 1 h [5]: 726 ng/g
- concentration at 6 h [5]: 472 ng/g
- concentration at 12 h [5]: 260 ng/g
- concentration at 24 h (choroid-RPE, […], Day 1, […] single dose, 24 hr, read-out: Mean Choroid-RPE Concentration): 78 ng/g
- concentration at 96 h (choroid-RPE, […], Day 1, […] single dose, 96 hr, read-out: Mean Choroid-RPE Concentration): 28.4 ng/g
- concentration at 168 h (choroid-RPE, […], Day 1, […] single dose, 168 hr, read-out: Mean Choroid-RPE Concentration): 19.4 ng/g
- concentration at 0 h [6]: 695 ng/g
- concentration at 1 h [6]: 2000 ng/g
- concentration at 6 h [6]: 1530 ng/g
- concentration at 24 h (choroid-RPE, […], Day 15, […] BID, 24 hr, read-out: Mean Choroid-RPE Concentration): 685 ng/g
- concentration at 96 h (choroid-RPE, […], Day 15, […] BID, 96 hr, read-out: Mean Choroid-RPE Concentration): 238 ng/g
- concentration at 168 h (choroid-RPE, […], Day 15, […] BID, 168 hr, read-out: Mean Choroid-RPE Concentration): 183 ng/g
- concentration at 240 h (choroid-retinal pigment epithelium (choroid-RPE), 15 mg/kg, Day 15, 15 mg/kg BID, 240 hr, read-out: Mean Choroid-RPE Concentration): 119 ng/g
- concentration at 240 h (choroid-retinal pigment epithelium (choroid-RPE), […], Day 1, […] single dose, 240 hr, read-out: Mean Choroid-RPE Concentration): 5.23 ng/g
- concentration at 240 h (choroid-retinal pigment epithelium (choroid-RPE), […], Day 15, […] BID, 240 hr, read-out: Mean Choroid-RPE Concentration): 111 ng/g
- MRT last (choroid-retinal pigment epithelium (choroid-RPE), Choroid-RPE (OU), male DB rabbits, Group 1, Day 1, 7.5 mg/kg single oral dose): 42.8 h
- Tmax (choroid-retinal pigment epithelium (choroid-RPE), Choroid-RPE (OU), male DB rabbits, Group 2, Day 15, 7.5 mg/kg/dose BID oral (15 mg/kg/day)): 1 h
- Tmax (choroid-retinal pigment epithelium (choroid-RPE), Choroid-RPE (OU), male DB rabbits, Group 3, Day 15, 15 mg/kg/dose BID oral (30 mg/kg/day)): 1 h
- MRT last [7]: 5.59 h
- Tmax [7]: 1 h
- Tmax (iris-ciliary body (ICB), ICB (OU), male DB rabbits, Group 3, Day 15, 15 mg/kg/dose BID oral (30 mg/kg/day)): 1 h
- concentration at 1 h [8]: 2050 ng/g
- concentration at 6 h [8]: 939 ng/g
- concentration at 24 h (iris-ciliary body, 15 mg/kg, Day 15, 15 mg/kg BID, 24 hr, read-out: Mean Iris-Ciliary Concentration): 460 ng/g
- concentration at 1 h [9]: 435 ng/g
- concentration at 6 h [9]: 163 ng/g
- concentration at 24 h (iris-ciliary body, […], Day 1, […] single dose, 24 hr, read-out: Mean Iris-Ciliary Concentration): 31.4 ng/g
- concentration at 1 h [10]: 943 ng/g
- concentration at 6 h [10]: 634 ng/g
- concentration at 24 h (iris-ciliary body, […], Day 15, […] BID, 24 hr, read-out: Mean Iris-Ciliary Concentration): 184 ng/g
- concentration at 0 h [11]: 36.4 ng/mL
- concentration at 1 h [11]: 910 ng/mL
- concentration at 6 h [11]: 130 ng/mL
- concentration at 12 h [11]: 54.3 ng/mL
- concentration at 24 h (plasma, 15 mg/kg, Day 15, 15 mg/kg BID, 24 hr, read-out: Mean Plasma Concentration): 10.5 ng/mL
- concentration at 1 h [12]: 423 ng/mL
- concentration at 6 h [12]: 25.1 ng/mL
- concentration at 12 h [12]: 14.8 ng/mL
- concentration at 24 h (plasma, […], Day 1, […] single dose, 24 hr, read-out: Mean Plasma Concentration): 3.26 ng/mL
- concentration at 0 h [13]: 22.2 ng/mL
- concentration at 1 h [13]: 440 ng/mL
- concentration at 6 h [13]: 90.1 ng/mL
- concentration at 12 h [13]: 29.6 ng/mL
- concentration at 24 h (plasma, […], Day 15, […] BID, 24 hr, read-out: Mean Plasma Concentration): 6.64 ng/mL
- concentration at 6 h (retina, 15 mg/kg BID, Day 15, 15 mg/kg BID, read-out: Mean Retina Concentration): 115 ng/g
- concentration at 24 h (retina, 15 mg/kg BID, Day 15, 15 mg/kg BID, 24 hr, read-out: Mean Retina Concentration): 139 ng/g
- concentration at 96 h (retina, 15 mg/kg BID, Day 15, 15 mg/kg BID, 96 hr, read-out: Mean Retina Concentration): 31.4 ng/g
- concentration at 168 h (retina, 15 mg/kg BID, Day 15, 15 mg/kg BID, 168 hr, read-out: Mean Retina Concentration): 22.5 ng/g
- concentration at 240 h (retina, 15 mg/kg BID, Day 15, 15 mg/kg BID, 240 hr, read-out: Mean Retina Concentration): 19.7 ng/g
- concentration at 0 h [14]: 45 ng/g
- concentration at 1 h [14]: 1120 ng/g
- concentration at 1 h (retina, […], Day 1, […] single dose, read-out: Mean Retina Concentration): 188 ng/g
- concentration at 0 h [15]: 20.7 ng/g
- concentration at 1 h [15]: 306 ng/g
